Pest or weed control data for seven compounds are collected here from patent publication US20220132847A1, “CINNOLINIUM COMPOUNDS FOR USE IN A METHOD OF CONTROLLING UNWANTED PLANT GROWTH” (SYNGENTA CROP PROTECTION AG, priority 2019, published 2022).

Holding throughout (assay): Post-emergence efficacy, glasshouse
What all share (type): in vivo

The subject of test [1] is Ipomoea hederacea (IPOHE). Particulars: Ipomoea hederacea, post-emergence, 312 h, evaluated after 13 days, 100=total damage to plant, 0=no damage to plant, read-out: Control of weed species after post-emergence application, IPOHE; for pest or weed control at 1000 g/ha: Application Rate 1000 g/Ha. The procedure, abridged: (§1)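 Plants grown 14 days in standard soil in pots in the glasshouse (24/16° C. day/night, 14 h light, 65% humidity) were sprayed with test compound diluted in 0.25% or 1% Empicol ESC70 plus 1% ammonium sulphate in water. Damage was scored 13 days later (0 = none, 100 = total).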

Test [2] relates to Digitaria sanguinalis (DIGSA). The note with it: Digitaria sanguinalis, post-emergence, 312 h, evaluated after 13 days, 100=total damage to plant, 0=no damage to plant, read-out: Control of weed species after post-emergence application, DIGSA; for pest or weed control at 1000 g/ha: Application Rate 1000 g/Ha. The procedure, abridged: as §1
Test [3] deals with Chenopodium album (CHEAL). The note with it: Chenopodium album, post-emergence, 312 h, evaluated after 13 days, 100=total damage to plant, 0=no damage to plant, read-out: Control of weed species after post-emergence application, CHEAL; for pest or weed control at 1000 g/ha: Application Rate 1000 g/Ha. The procedure, abridged: as §1
Test [4] deals with Echinochloa crus-galli (ECHCG). Particulars: Echinochloa crus-galli, post-emergence, 312 h, evaluated after 13 days, 100=total damage to plant, 0=no damage to plant, read-out: Control of weed species after post-emergence application, ECHCG; for pest or weed control at 1000 g/ha: Application Rate 1000 g/Ha. In short, it runs like this: as §1
Test [5] concerns Euphorbia heterophylla (EPHHL). The note with it: Euphorbia heterophylla, post-emergence, 312 h, evaluated after 13 days, 100=total damage to plant, 0=no damage to plant, read-out: Control of weed species after post-emergence application, EPHHL; for pest or weed control at 1000 g/ha: Application Rate 1000 g/Ha. The procedure, abridged:
as §1

Test [6] relates to Setaria faberi (SETFA). Particulars: Setaria faberi, post-emergence, 312 h, evaluated after 13 days, 100=total damage to plant, 0=no damage to plant, read-out: Control of weed species after post-emergence application, SETFA; for pest or weed control at 1000 g/ha: Application Rate 1000 g/Ha. The procedure, abridged: as §1
Test [7] has as its system Amaranthus palmeri (AMAPA). The note with it: Amaranthus palmeri, post-emergence, 312 h, evaluated after 13 days, 100=total damage to plant, 0=no damage to plant, read-out: Control of weed species after post-emergence application, AMAPA; for pest or weed control at 1000 g/ha: Application Rate 1000 g/Ha. The procedure, abridged: as §1
For test [8], the system named is Lolium perenne (LOLPE). Particulars: Lolium perenne, post-emergence, 312 h, evaluated after 13 days, 100=total damage to plant, 0=no damage to plant, read-out: Control of weed species after post-emergence application, LOLPE; for pest or weed control at 1000 g/ha: Application Rate 1000 g/Ha. In short, it runs like this: as §1
Test [9] deals with Eleusine indica (ELEIN). The note with it: Eleusine indica, post-emergence, 312 h, evaluated after 13 days, 100=total damage to plant, 0=no damage to plant, read-out: Control of weed species after post-emergence application, ELEIN; for pest or weed control at 1000 g/ha: Application Rate 1000 g/Ha. The procedure, abridged: as §1

Structures are written as SMILES.

Regarding `CCCCCCCC[n+]1cc(C(=O)[N-]S(C)(=O)=O)c2ccccc2n1` [Compound A40], the pest or weed control at 1000 g/ha in [1] was determined as 10%; in test [2] it was 20%; in [3], 70%; in [4], 20%; in test [5] it was 30%; in [6] it was 40%. The values for the pest or weed control at 1000 g/ha in [7], in [8] and in test [9] were 90%, 20% and 10%, respectively.
For `C[n+]1cc(C(=O)[N-]S(=O)(=O)c2ccccc2)c2ccccc2n1` [Compound A35], the pest or weed control at 1000 g/ha in test [1] was found to be 20%; in test [2] it was 10%; in [3] it was 0%; in [4] it was 0%; in test [5], 40%; in [6], 10%. For the same compound, the pest or weed control at 1000 g/ha amounted to 20% in [7], 0% in test [8] and 0% in test [9].
Turning to `C[n+]1cc(C(=O)[N-]S(C)(=O)=O)c2ccccc2n1` [Compound A5, (2-methylcinnolin-2-ium-4-carbonyl)-methylsulfonyl-azanide], the pest or weed control at 1000 g/ha in test [1] came out at 90%; in test [2], 90%; in test [3], 90%; in test [4], 50%; in [5] it was 90%; in test [6], 70%. Moreover, the values for the pest or weed control at 1000 g/ha in test [7], in test [8] and in [9] were 100%, 50% and 90%, respectively.
As to `COC(=O)CC[n+]1cc(C(=O)[N-]S(=O)(=O)C2CC2)c2ccccc2n1` [Compound A19, cyclopropylsulfonyl-[2-(3-methoxy-3-oxo-propyl)cinnolin-2-ium-4-carbonyl]azanide], the pest or weed control at 500 g/ha in [1] (Application Rate 500 g/Ha) is 30%; in [2] (Application Rate 500 g/Ha), 40%; in test [3] (Application Rate 500 g/Ha) it was 60%; in test [4] (Application Rate 500 g/Ha) it was 60%; in test [5] (Application Rate 500 g/Ha), 40%; in test [6] (Application Rate 500 g/Ha) it was 0%. Moreover, the results for the pest or weed control at 500 g/ha in [7] (Application Rate 500 g/Ha), in test [8] (Application Rate 500 g/Ha) and in [9] (Application Rate 500 g/Ha) were 30%, 20% and 50%, respectively.
In the case of `Cn1nnnc1[N-]C(=O)c1c[n+](C)nc2ccccc12` [Compound A16], the pest or weed control at 1000 g/ha came out at 40% in [1]; 0% in test [2]; 60% in test [3]; 20% in [4]; 30% in test [5]; 10% in test [6]. Also, the pest or weed control at 1000 g/ha in test [7] came out at 50%; in [8], 10%; in test [9], 0%.
Turning to `Cn1ncnc1NC(=O)c1c[n+](C)nc2ccccc12` [Compound A25, 2-methyl-N-(2-methyl-1,2,4-triazol-3-yl)cinnolin-2-ium-4-carboxamide iodide], the pest or weed control at 1000 g/ha is 30% in test [1]; 10% in [2]; 50% in test [3]; 10% in test [4]; 20% in [5]; 20% in test [6]. The pest or weed control at 1000 g/ha in test [7] was found to be 50%; in [8] it was 10%; in test [9] it was 10%.
With `CS(=O)(=O)[N-]C(=O)c1c[n+](CC(=O)NS(C)(=O)=O)nc2ccccc12` [Compound A13], the pest or weed control at 1000 g/ha in test [1] is 10%; in test [2] it was 10%; in test [3] it was 0%; in test [4], 10%; in [5], 10%; in test [6], 10%. The pest or weed control at 1000 g/ha was found to be 0% in [7], 10% in test [8] and 10% in test [9].
